In US6627651B1, “Cyclic compounds and uses thereof” (Takeda Chemical Industries, Ltd., priority 1999, dated 2003):

**Q.** Which melting point does the source give for `Cc1ccc(-c2ccc3c(c2)CN(C(=O)Nc2ccc(C[N+]4(C)CCCCC4)cc2)CC3)cc1.[Cl-]` here?
**A.** The melting point was 179 to 180 °C (dec.).

**Q.** Which melting point does the source give for `Cc1ccc(-c2ccc3c(c2)C=C(C(=O)Nc2ccc(C(=N)N)cc2)CCO3)cc1.Cl` here?
**A.** The melting point was 294 to 296 °C.

**Q.** For `CCNC(=N)c1ccc(NC(=O)C2=Cc3cc(-c4ccc(C)cc4)ccc3OCC2)cc1.Cl`, which melting point is on record?
**A.** Its melting point is over 300 °C.

**Q.** Which melting point does the source give for `CN(Cc1ccc(NC(=O)C2CCS(=O)(=O)c3ccc(OCc4ccc(F)cc4)cc3C2)cc1)C1CCOCC1` (centres unmarked) [Compound 3, 7-(4-fluorobenzyloxy)-N-[4-[N-methyl-N-(tetrahydropyran-4-yl)aminomethyl]phenyl]-1,1-dioxo-3,4-dihydro-1-benzothiepine-4-carboxamide] here?
**A.** Its melting point is 232 to 234 °C.

**Q.** With `CN(Cc1ccc(NC(=O)C2=Cc3cc(OCc4cccnc4)ccc3S(=O)(=O)CC2)cc1)C1CCOCC1` [Compound 4, N-[4-[N-methyl-N-(tetrahydropyran-4-yl)aminomethyl]phenyl]-7-(3-pyridylmethoxy)-1,1-dioxo-2,3-dihydro-1-benzothiepine-4-carboxamide] as the molecule, how does the melting point read?
**A.** The melting point was 225 to 229 °C.

**Q.** With `Cc1ccc(C2=Cc3cc(C(=O)Nc4ccc(CN(C)C5CCOCC5)cc4)ccc3OC2)cc1` [Compound 22, 3-(4-methylphenyl)-N-[4-[N-methyl-N-(tetrahydropyran-4-yl)aminomethyl]phenyl]-2H-1-benzopyran-6-carboxamide] as the molecule, how does the melting point read?
**A.** The melting point was 230 to 235 °C.

**Q.** With `Cc1ccc(-c2ccc3cc(C(=O)Nc4ccc(CN(C)C5CCOCC5)cc4)[nH]c3c2)cc1` [Compound 23, 6-(4-methylphenyl)-N-[4-[N-methyl-N-(tetrahydropyran-4-yl)aminomethyl]phenyl]-1H-indole-2-carboxamide] as the molecule, how does the melting point read?
**A.** Its melting point is 246 to 250 °C.

**Q.** Which melting point does the source give for `Cc1ccc(-c2ccc3cc(C(=O)Nc4ccc(CN(C)C5CCOCC5)cc4)n(C)c3c2)cc1` [Compound 24, 1-methyl-6-(4-methylphenyl)-N-[4-[N-methyl-N-(tetrahydropyran-4-yl)aminomethyl]phenyl]-1H-indole-2-carboxamide] here?
**A.** Its melting point is 225 to 226 °C.

**Q.** Which melting point does the source give for `Cc1ccc(C2=Cc3cc(C(=O)Nc4ccc(C[N+](C)(C)C5CCOCC5)cc4)ccc3OC2)cc1.[I-]` [Compound 28, N,N-dimethyl-N-[4-[[3-(4-methylphenyl)-2H-1-benzopyran-6-carbonyl]amino]benzyl]-4-tetrahydropyranylammonium iodide] here?
**A.** Its melting point is 215 to 218 °C (dec.).

**Q.** For `Cc1ccc(-c2ccc3c(c2)C=C(N(C)c2ccc(CN(C)C4CCOCC4)cc2)CCO3)cc1` [Compound 34, N-[4-[(N-methyl-N-(tetrahydropyran-4-yl)aminomethyl)]phenyl]-N-[7-(4-methylphenyl)-2,3-dihydro-1-benzooxepin-4-yl]methylamine], which melting point is on record?
**A.** The melting point was 158 to 160 °C.

**Q.** With `Cc1ccc(-c2ccc3c(c2)C=C(C(=O)NC2CCNCC2)CCO3)cc1` [Compound 54, N-(4-piperidinyl)-7-(4-methylphenyl)-2,3-dihydro-1-benzooxepine-4-carboxamide] as the molecule, how does the melting point read?
**A.** Its melting point is 183 to 185 °C.

**Q.** Which melting point does the source give for `Cc1ccc(-c2ccc3c(c2)C=C(C(=O)NC2CCN(CC4CCCCC4)CC2)CCO3)cc1` [Compound 55, N-(1-cyclohexylmethylpiperidin-4-yl)-7-(4-methylphenyl)-2,3-dihydro-1-benzooxepine-4-carboxamide] here?
**A.** Its melting point is 180 to 181 °C.

**Q.** Which melting point does the source give for `Cc1ccc(-c2ccc3c(c2)C=C(C(=O)NC2CCN(CC4=CCCCCCC4)CC2)CCO3)cc1` [Compound 57, N-(1-(cycloocten-1-yl)methylpiperidin-4-yl)-7-(4-methylphenyl)-2,3-dihydro-1-benzooxepine-4-carboxamide] here?
**A.** Its melting point is 148 to 151 °C.

**Q.** Which melting point does the source give for `Cc1ccc(-c2ccc3c(c2)C=C(C(=O)NC2CCN(Cc4ccccc4)CC2)CCO3)cc1` [Compound 58, N-(1-benzylpiperidin-4-yl)-7-(4-methylphenyl)-2,3-dihydro-1-benzooxepine-4-carboxamide] here?
**A.** The melting point was 161 to 162 °C (dec.).

**Q.** With `Cc1ccc(-c2ccc3c(c2)C=C(C(=O)NC2CCN(CC4=CCCCCCCC4)CC2)CCO3)cc1` [Compound 59, N-(1-(cyclononen-1-yl)methylpiperidin-4-yl)-7-(4-methylphenyl)-2,3-dihydro-1-benzooxepine-4-carboxamide] as the molecule, how does the melting point read?
**A.** The melting point was 128 to 130 °C.

**Q.** Which melting point does the source give for `Cc1ccc(-c2ccc3c(c2)C=C(C(=O)NC2CCN(CCC4CCCCC4)CC2)CCO3)cc1` [Compound 60, N-(1-(2-cyclohexylethyl)piperidin-4-yl)-7-(4-methylphenyl)-2,3-dihydro-1-benzooxepine-4-carboxamide] here?
**A.** Its melting point is 193 to 196 °C.

**Q.** With `Cc1ccc(-c2ccc3c(c2)C=C(C(=O)NC2CCN(C)CC2)CCO3)cc1` [Compound 61, N-(1-methylpiperidin-4-yl)-7-(4-methylphenyl)-2,3-dihydro-1-benzooxepine-4-carboxamide] as the molecule, how does the melting point read?
**A.** The melting point was 180 to 182 °C.

**Q.** With `Cc1ccc(-c2ccc3c(c2)C=C(C(=O)N[C@H]2CC[C@H](CN(C)C4CCOCC4)CC2)CCO3)cc1` [Compound 63, trans-7-(4-methylphenyl)-N-[4-[N-methyl-N-(tetrahydropyran-4-yl)aminomethyl]cyclohexyl]-2,3-dihydro-1-benzooxepine-4-carboxamide] as the molecule, how does the melting point read?
**A.** The melting point was 144 to 146 °C.

**Q.** With `Cc1ccc(-c2ccc3c(c2)C=C(C(=O)N[C@H]2CC[C@H](CN(C)C4CCOCC4)CC2)CCC3)cc1` [Compound 64, trans-2-(4-methylphenyl)-N-[4-[N-methyl-N-(tetrahydropyran-4-yl)aminomethyl]cyclohexyl]-6,7-dihydro-5H-benzocycloheptene-8-carboxamide] as the molecule, how does the melting point read?
**A.** The melting point was 163 to 165 °C.

**Q.** Which melting point does the source give for `Cc1ccc(-c2ccc3c(c2)C=C(C(=O)N[C@H]2CC[C@H](CN(C)C4CCN(C(=O)OC(C)(C)C)CC4)CC2)CCO3)cc1` [Compound 65, trans-N-[4-[N-(1-tert-butoxycarbonylpiperidin-4-yl)-N-methylaminomethyl]cyclohexyl]-7-(4-methylphenyl)-2,3-dihydro-1-benzooxepine-4-carboxamide] here?
**A.** Its melting point is 146 to 150 °C.

**Q.** With `Cc1ccc(-c2ccc3c(c2)C=C(C(=O)N[C@H]2CC[C@H](CN(C)C4CCOCC4)CC2)CO3)cc1` [Compound 67, trans-6-(4-methylphenyl)-N-[4-[N-methyl-N-(tetrahydropyran-4-yl)aminomethyl]cyclohexyl]-2H-1-benzopyran-3-carboxamide] as the molecule, how does the melting point read?
**A.** Its melting point is 141 to 143 °C.

**Q.** For `Cc1ccc(C2=Cc3cc(C(=O)N[C@H]4CC[C@H](CN(C)C5CCOCC5)CC4)ccc3OC2)cc1` [Compound 68, trans-3-(4-methylphenyl)-N-[4-[N-methyl-N-(tetrahydropyran-4-yl)aminomethyl]cyclohexyl]-2H-1-benzopyran-6-carboxamide], which melting point is on record?
**A.** Its melting point is 205 to 207 °C.

**Q.** With `Cc1ccc(-c2ccc3nc(C)c(C(=O)N[C@H]4CC[C@H](CN(C)C5CCOCC5)CC4)cc3c2)cc1` [Compound 70, trans-2-methyl-6-(4-methylphenyl)-N-[4-[N-methyl-N-(tetrahydropyran-4-yl)aminomethyl]cyclohexyl]quinoline-3-carboxamide] as the molecule, how does the melting point read?
**A.** The melting point was 163 to 165 °C.

**Q.** Which melting point does the source give for `Cc1ccc(-c2csc(/C=C/C(=O)N[C@H]3CC[C@H](CN(C)C4CCOCC4)CC3)c2)cc1` [Compound 72, (trans, E)-3-[4-(4-methylphenyl)thiophen-2-yl]-N-[4-[N-methyl-N-(tetrahydropyran-4-yl)aminomethyl]cyclohexyl]acrylamide] here?
**A.** Its melting point is 180 to 183 °C.

**Q.** For `Cc1ccc(-c2cncc(/C=C/C(=O)N[C@H]3CC[C@H](CN(C)C4CCOCC4)CC3)c2)cc1` [Compound 73, (trans, E)-3-[5-(4-methylphenyl)pyridin-3-yl]-N-[4-[N-methyl-N-(tetrahydropyran-4-yl)aminomethyl]cyclohexyl]acrylamide], which melting point is on record?
**A.** The melting point was 233 to 236 °C.

**Q.** With `Cc1ccc(-c2coc(/C=C/C(=O)N[C@H]3CC[C@H](CN(C)C4CCOCC4)CC3)c2)cc1` [Compound 74, (trans, E)-3-[4-(4-methylphenyl)furan-2-yl]-N-[4-[N-methyl-N-(tetrahydropyran-4-yl)aminomethyl]cyclohexyl]acrylamide] as the molecule, how does the melting point read?
**A.** Its melting point is 165 to 167 °C.

**Q.** Which melting point does the source give for `Cc1ccc(-c2ccc3c(c2)C=C(C(=O)N2CCC(N)CC2)CCO3)cc1` [Compound 76, 4-amino-1-(7-(4-methylphenyl)-2,3-dihydro-1-benzooxepine-4-carbonyl)piperidine] here?
**A.** The melting point was 123 to 127 °C.

**Q.** With `Cc1ccc(-c2ccc3c(c2)C=C(CN2CCC(NC4CCOCC4)CC2)CCO3)cc1` [Compound 80, 1-(7-(4-methylphenyl)-2,3-dihydro-1-benzooxepin-4-yl)methyl-4-((tetrahydropyran-4-yl)amino)piperidine] as the molecule, how does the melting point read?
**A.** The melting point was 101 to 103 °C.

**Q.** For `O=C(Nc1ccc(CN2CCCCC2)cc1)C1CCc2ccc(-c3ccccc3)cc2C1` (centres unmarked) [Compound 82, N-[4-(piperidinomethyl)phenyl]-7-phenyl-1,2,3,4-tetrahydronaphthalene-2-carboxamide], which melting point is on record?
**A.** The melting point was 185 to 187 °C.

**Q.** For `C[N+]1(Cc2ccc(NC(=O)C3CCc4ccc(-c5ccccc5)cc4C3)cc2)CCCCC1.[I-]` (centres unmarked) [Compound 83, 1-[4-(7-phenyl-1,2,3,4-tetrahydronaphthalene-2-carboxamido)benzyl]-1-methylpiperidinium iodide], which melting point is on record?
**A.** The melting point was 205 to 208 °C.

**Q.** With `Cc1ccc(COc2cccc(C(=O)Nc3ccc(CN4CCCCC4)cc3)c2)cc1` [Compound 85, 3-(4-methylbenzyloxy)-4′-(piperidinomethyl)benzanilide] as the molecule, how does the melting point read?
**A.** Its melting point is 153 to 155 °C.

**Q.** With `O=C(Nc1ccc(CN2CCCCC2)cc1)c1cccc(OCc2cccc3ccccc23)c1` [Compound 86, 3-(1-naphthylmethoxy)-4′-(piperidinomethyl)benzanilide] as the molecule, how does the melting point read?
**A.** Its melting point is 171 to 173 °C.

**Q.** Which melting point does the source give for `C[N+]1(Cc2ccc(NC(=O)c3cccc(OCc4ccccc4)c3)cc2)CCCCC1.[I-]` [Compound 87, 1-[4-(3-benzyloxybenzoylamino)benzyl]-1-methylpiperidinium iodide] here?
**A.** The melting point was 192 to 194 °C.

**Q.** Which melting point does the source give for `Cc1ccc(COc2cccc(C(=O)Nc3ccc(C[N+]4(C)CCCCC4)cc3)c2)cc1.[I-]` [Compound 88, 1-methyl-1-[4-[3-(4-methylbenzyloxy)benzoylamino]benzyl]piperidinium iodide] here?
**A.** The melting point was 210 to 212 °C.

**Q.** With `C[N+]1(Cc2ccc(NC(=O)c3cccc(OCc4cccc5ccccc45)c3)cc2)CCCCC1.[I-]` [Compound 89, 1-methyl-1-[4-[3-(1-naphthylmethoxy)benzoylamino]benzyl]piperidinium iodide] as the molecule, how does the melting point read?
**A.** Its melting point is 211 to 213 °C.
